Laboratory results from patent US5409953A, “Isolation, structural elucidation and synthesis of novel antineoplastic substances denominated "combretastatins"” (Arizona Board of Regents acting on behalf of Arizona State …, priority 1992, dated 1995).
Converted amounts (≈) assume the structure as drawn. “Also recorded” adds a separate entry of the source. Like-named read-outs stand apart in the source and are kept apart here. Each block holds one compound with its values, some of them ahead of it.

Tests used:
[1] = system: murine P388 lymphocytic leukemia (PS system); assay: inhibition of PS cell line growth (Ed50); type: cell-based; settings: for IC50: Mus musculus
[2] = system: murine P388 lymphocytic leukemia (PS system); assay: PS in vivo life extension; settings: 2.75-11 mg/kg dose levels
tubulin [3] = assay: microtubule assembly (turbidimetric); type: biochemical; settings: for IC50: Experiment I; for inhibition of microtubule assembly / tubulin polymerization in words: comparison with reference agents
Description: (§1) The assembly reaction at 37° C. was followed turbidimetrically as described by Hamel et al, Biochem. Pharmacal., 32, p.

tubulin [4] = assay: binding of [3H]colchicine to tubulin; settings: Experiment II; for colchicine binding, % of control: 5 μM [3H]colchicine, competing drug at 5 μM, 10 minutes at 37° C.
Description: (§2) Incubation was for 10 minutes at 37° C.

tubulin [5] = assay: in vitro interactions with tubulin (overall comparison); type: biochemical
Description: as §1, §2

NCI astrocytoma = NCI astrocytoma bioassay; type: cell-based
tubulin [6] = settings: cited from earlier work
[7] = read-out: concentration giving equivalent inhibition of microtubule assembly
[8] = read-out: ID50, drug concentration inhibiting the extent of microtubule assembly by 50%, 37° C., 1.5 mg/ml tubulin, 0.5 mg/ml microtubule-associated proteins

IC50 ([1]; P388 (PS) cell line): 1.7 µg/mL (≈ 5.9 µM)
SMILES: COc1cc(CCc2ccc(OC)c(O)c2)cc(OC)c1 [3'-hydroxy-3,4',5-trimethoxy bibenzyl]

IC50 ([1]; P388 (PS) cell line): 0.25 µg/mL (≈ 0.867 µM)
SMILES: COc1cc(CCc2ccc(O)cc2)cc(OC)c1OC [4'-hydroxy-3,4,5-trimethoxy bibenzyl]

SMILES: COc1cc(/C=C\c2ccc(OC)c(OC(C)=O)c2OC(C)=O)cc(OC)c1OC [Combretastatin A-1 d lacerate, 2', 3'-diacetoxy-4'-methoxy-Z-combretastatin A-1]
IC50 ([1]; P388 (PS) cell line): 2.7 µg/mL (≈ 6.48 µM)
activity relative to parent natural product combretastatin A-1 ([1]; PS cell line): three-fold less active

SMILES: COc1ccc(/C=C\c2cc(OC)c(OC)c(OC)c2)c(O)c1O [Combretastatin A-1]
IC50 ([1]; P388 (PS) cell line): 0.99 µg/mL (≈ 2.98 µM)
increase in life extension [2]: 26-29%
IC50 (tubulin [3]; [7]): 2 µM
inhibition of microtubule assembly / tubulin polymerization in words (tubulin [3]): more potent than combretastatin and the well known tubulin inhibitors colchicine and podophylotoxin
inhibition of microtubule assembly / tubulin polymerization in words (tubulin [3]; listed as combretastatins A-1): comparable to that observed with podophyllotoxin and greater than that observed with colchicine and steganacin
concentration completely inhibiting microtubulin assembly in vitro (tubulin [3]; complete inhibition): less than 1.5 μmolar
inhibition of binding of (3H)colchicine to tubulin in words (tubulin [4]): particularly potent
colchicine binding, % of control (tubulin [4]): 2.2 % of control
interactions with tubulin in words (tubulin [5]): more active than combretastatin B-1; also recorded: significantly more potent than the previously described combretastatin

SMILES: COc1ccc(/C=C\c2cc(OC)c3c(c2)OCO3)cc1O [Combretastatin A-2]
IC50 ([1]; P388 (PS) cell line): 0.027 µg/mL (≈ 0.0899 µM)

SMILES: COc1ccc(/C=C\c2cc(O)c(OC)c(OC)c2)cc1O [Combretastatin A-3]
IC50 ([1]; P388 (PS) cell line): 0.026 µg/mL (≈ 0.086 µM)

IC50 ([1]; P388 (PS) cell line): 1.7 µg/mL (≈ 5.08 µM)
IC50 (tubulin [3]; [7]): 3 µM
inhibition of binding of (3H)colchicine to tubulin in words (tubulin [4]): particularly potent
colchicine binding, % of control (tubulin [4]): 13 % of control
SMILES: COc1ccc(CCc2cc(OC)c(OC)c(OC)c2)c(O)c1O [Combretastatin B-1]
inhibition of microtubule assembly / tubulin polymerization in words (tubulin [3]): comparable to that observed with podophyllotoxin and greater than that observed with colchicine and steganacin
interactions with tubulin in words (tubulin [5]): significantly more potent than the previously described combretastatin

IC50 ([1]; P388 (PS) cell line): 0.32 µg/mL (≈ 1.05 µM)
SMILES: COc1ccc(CCc2cc(O)c(OC)c(OC)c2)cc1O [Combretastatin B-2]

IC50 ([1]; P388 (PS) cell line): 0.4 µg/mL (≈ 1.31 µM)
SMILES: COc1cc(CCc2ccc(O)c(O)c2)cc(OC)c1OC [Combretastatin B-3]

IC50 ([1]; P388 (PS) cell line): 1.7 µg/mL (≈ 6.2 µM)
SMILES: COc1cc(CCc2ccc(O)c(O)c2)cc(OC)c1 [Combretastatin B-4]

IC50 (tubulin [3]; [7]): 11 µM
colchicine binding, % of control (tubulin [4]): 34 % of control
SMILES: COc1ccc(C[C@@H](O)c2cc(OC)c(OC)c(OC)c2)cc1O [Combretastatin, R(-)-1-(3,4,5-tri-methoxyphenyl)-2-(3'-hydroxy, 4'-methoxyphenyl)-ethanol]
astrocyte reversal (NCI astrocytoma): pronounced astrocyte reversal
mode of inhibition of binding of radiolabeled colchicine (tubulin [6]): competitive inhibitors

SMILES: COc1cc([C@@H]2c3cc4c(cc3[C@H](O)[C@H]3COC(=O)[C@H]23)OCO4)cc(OC)c1OC [Podophyllotoxin, reference compound]
colchicine binding, % of control (tubulin [4]): 13 % of control
mode of inhibition of binding of radiolabeled colchicine (tubulin [6]): competitive inhibitors

SMILES: COc1cc2c(c(OC)c1OC)-c1cc3c(cc1C(OC(C)=O)[C@H]1COC(=O)[C@@H]1C2)OCO3 (stereo partly drawn) [Steganacin, reference compound]
IC50 (tubulin [3]; [8]): 6 µM
colchicine binding, % of control (tubulin [4]): 49 % of control
mode of inhibition of binding of radiolabeled colchicine (tubulin [6]): competitive inhibitors

SMILES: COc1cc(/C=C/c2ccc(OC)c(OC(C)=O)c2OC(C)=O)cc(OC)c1OC [trans-isomer counter part, 2',3'-diacetoxy-4'-methoxy-E-combretastatin A-1]
IC50 ([1]; P388 (PS) cell line): 12 µg/mL (≈ 28.8 µM)
PS cell line activity in words ([1]; P388 (PS) cell line): essentially inactive
